From patent publication US20110218211A1, “AZAINDOLE INHIBITORS OF IAP” (Genentech, Inc., priority 2008, published 2011)

How the values were obtained:
XIAP-BIR3 = target: T1, XIAP-BIR3 (Homo sapiens, UniProt P98170); experiment: Fluorescence polarization peptide binding assay, XIAP-BIR3; conditions: 0.5 μM XIAP-BIR3, 5 nM AVP-diPhe-FAM probe; for Ki: Ki determined from IC50, read-out: XIAPBIR3 Ki; for IC50: read-out: XIAPBIR3 IC50
T1 construct: serial dilutions of MLXBIR3SG, XIAP-BIR3, cIAP1XBIR3, or cIAP2XBIR3
Method: (§1) Polarization experiments were performed on an Analyst HT 96-384 (Molecular Devices Corp.) according to the procedure of Keating, S. M., Marsters, J, Beresini, M., Ladner, C., Zioncheck, K., Clark, K., Arellano, F., and Bodary, S. (2000) in Proceedings of SPIE: In Vitro Diagnostic Instrumentation (Cohn, G. E., Ed.) pp 128-137, Bellingham, Wash. Initial polarization experiments were performed in order to determine dissociation constants (Kd) between IAP protein BIR domains and fluorescent probes. Samples for fluorescence polarization affinity measurements were prepared by addition of serial dilutions of MLXBIR3SG, XIAP-BIR3, cIAP1XBIR3, or cIAP2XBIR3 in polarization buffer (50 mM Tris [pH 7.2], 120 mM NaCl, 1% bovine globulins, 5 mM DTT and 0.05% octylglucoside) to 5 nM 5-carboxyflourescein (5-FAM)-conjugated AVP-diphenylalanine-AKK (AVP-diPhe-FAM). The resulting reactions were incubated for 30 minutes at room temperature in 384-well black HE96 plates (Molecular Devices Corp.; Sunnyvale, Calif.) and fluorescence values were measured using standard filters for the fluorescein fluorophore (λex=485 nm, λem=530 nm). Fluorescence polarization values were plotted as a function of the protein concentration and the 50% effective concentration (EC50) values were obtained by fitting the data to a four-parameter equation using KaleidaGraph software (Synergy Software; Reading, Pa.). The apparent Kd values were determined from the EC50 values.
(§2) Inhibition constants (Ki) for the antagonists were determined by addition of 0.06 μM MLXBIR3SG, 0.5 μM XIAP-BIR3, 0.2 μM cIAP1XBIR3 or 0.4 μM cIAP2XBIR3 to wells containing 1:3 serial dilutions of the antagonists, and 5 nM AVP-diPhe-FAM probe in the polarization buffer. After a 10 to 30-minute incubation period, the fluorescence value of each sample was measured. Fluorescence polarization values were plotted as a function of the antagonist concentration, and the 50% inhibitory concentration (IC50) values were determined by fitting the data to a four-parameter equation using KaleidaGraph software. The Ki values for the antagonists were determined from the IC50 values (Keating et al. 2000).

MLXBIR3SG = target: T2, MLXBIR3SG (Homo sapiens, UniProt Q96CA5, S150G); experiment: Fluorescence polarization peptide binding assay, MLXBIR3SG; conditions: 0.06 μM MLXBIR3SG, 5 nM AVP-diPhe-FAM probe; for Ki: Ki determined from IC50
T2 sequence (Q96CA5 with tags, fused parts or gaps S150G): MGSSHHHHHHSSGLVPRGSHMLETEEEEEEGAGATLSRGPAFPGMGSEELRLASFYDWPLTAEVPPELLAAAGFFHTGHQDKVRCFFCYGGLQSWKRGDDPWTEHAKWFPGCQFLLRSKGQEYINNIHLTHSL
Method: In the following experiments was used a chimeric BIR domain referred to as MLXBIR3SG in which 11 of 110 residues correspond to those found in XIAP-BIR3, while the remainder correspond to ML-IAP-BIR. […] The improved caspase-9 inhibition of the chimeric BIR domain MLXBIR3SG has been correlated with increased inhibition of doxorubicin-induced apoptosis when transfected into MCF7 cells.
as §1, §2

cIAP1XBIR3 = target: T3, cIAP1XBIR3 (Homo sapiens, UniProt Q13490, C308S/R332G/S292A); experiment: Fluorescence polarization peptide binding assay, cIAP1XBIR3; conditions: 0.2 μM cIAP1XBIR3, 5 nM AVP-diPhe-FAM probe; for Ki: Ki determined from IC50
T3 construct: made in house
Method: (§3) Similar cIAP1-BIR3/XIAP-BIR3 and cIAP2-BIR3/XIAP-BIR3 chimeric proteins, cIAP1XBIR3 and cIAP2XBIR3, respectively, were engineered, expressed, and purified in a similar fashion to MLXBIR3SG. As with MLXBIR3SG, the amino acid sequences of these BIR domains retain the native cIAP peptide-binding sites.
as §1, §2

cIAP2XBIR3 = target: T4, cIAP2XBIR3 (Homo sapiens, UniProt Q13489, C294S/R318G/S278A); experiment: Fluorescence polarization peptide binding assay, cIAP2XBIR3; conditions: 0.4 μM cIAP2XBIR3, 5 nM AVP-diPhe-FAM probe
T4 construct: made in house
Method: as §3
Polarization experiments were performed on an Analyst HT 96-384 (Molecular Devices Corp.) according to the procedure of Keating, S. M., Marsters, J, Beresini, M., Ladner, C., Zioncheck, K., Clark, K., Arellano, F., and Bodary, S. (2000) in Proceedings of SPIE: In Vitro Diagnostic Instrumentation (Cohn, G. E., Ed.) pp 128-137, Bellingham, Wash. Initial polarization experiments were performed in order to determine dissociation constants (Kd) between IAP protein BIR domains and fluorescent probes. […] The resulting reactions were incubated for 30 minutes at room temperature in 384-well black HE96 plates (Molecular Devices Corp.; Sunnyvale, Calif.) and fluorescence values were measured using standard filters for the fluorescein fluorophore (λex=485 nm, λem=530 nm). […] The apparent Kd values were determined from the EC50 values. […]

T3 sequence (Q13490 with tags, fused parts or gaps S292A/C308S/R332G): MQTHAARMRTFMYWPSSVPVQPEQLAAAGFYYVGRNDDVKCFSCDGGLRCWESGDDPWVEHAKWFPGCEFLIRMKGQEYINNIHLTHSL
T1 sequence (P98170 241-356 limits assumed): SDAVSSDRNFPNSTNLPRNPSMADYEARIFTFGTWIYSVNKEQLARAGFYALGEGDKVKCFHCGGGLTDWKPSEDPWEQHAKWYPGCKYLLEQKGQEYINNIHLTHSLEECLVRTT
T4 sequence (Q13489 with tags, fused parts or gaps S278A/C294S/R318G): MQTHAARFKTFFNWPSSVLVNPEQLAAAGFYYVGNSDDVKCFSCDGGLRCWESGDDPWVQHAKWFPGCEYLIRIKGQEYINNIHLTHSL

| Ki (XIAP-BIR3) [nM] | IC50 (XIAP-BIR3) [nM] | IC50 (MLXBIR3SG) [nM] | Ki (MLXBIR3SG) [nM] | IC50 (cIAP1XBIR3) [nM] | Ki (cIAP1XBIR3) [nM] | IC50 (cIAP2XBIR3) [nM] | Ki (cIAP2XBIR3; Ki determined from IC50) [nM] | Structure (SMILES) |
| --- | --- | --- | --- | --- | --- | --- | --- | --- |
| 64.9 | 364 | 62 | 14.1 | – | – | – | – | CN[C@@H](C)C(=O)N[C@H](C(=O)N1CCC[C@H]1c1cc2nc(C)nc(-c3ccc(F)cc3)c2[nH]1)C1CCCCC1 [compound 9] |
| 102 | 574 | 99.3 | 22.6 | – | – | – | – | CN[C@@H](C)C(=O)N[C@H](C(=O)N1CCC[C@H]1c1cc2ccnc(-c3ccc(F)cc3)c2[nH]1)C1CCCCC1 [compound 10] |
| 121 | 682 | 648 | 148 | 194 | 30.1 | – | – | CN[C@@H](C)C(=O)N[C@H](C(=O)N1CCC[C@H]1c1cc2ccnc(-c3ccccc3Cl)c2[nH]1)C1CCOCC1 [compound 11] |
| 76.9 | 434 | 156 | 35.6 | – | – | – | – | CN[C@@H](C)C(=O)N[C@H](C(=O)N1CCC[C@H]1c1cc2ncnc(-c3ccccc3)c2[nH]1)C1CCOCC1 [compound 4] |
| 64.4 | – | 144 | 32.9 | – | – | – | – | CN[C@@H](C)C(=O)N[C@H](C(=O)N1CCC[C@H]1c1cc2ccnc(-c3ccccc3)c2[nH]1)c1ccccc1 [compound 12] |
| 201 | 1130 | 359 | 81.9 | – | – | – | – | CN[C@@H](C)C(=O)N[C@H](C(=O)N1CCC[C@H]1c1cc2nc(C)nc(-c3ccccc3)c2[nH]1)C1CCOCC1 [compound 6] |
| 89 | 500 | 108 | 24.6 | – | – | – | – | CN[C@@H](C)C(=O)N[C@H](C(=O)N1CCC[C@H]1c1cc2nc(C)nc(-c3ccc(F)cc3)c2[nH]1)C1CCOCC1 [compound 8] |
| 90.5 | 508 | 158 | 36 | 461 | 71.3 | 502 | 109 | CN[C@@H](C)C(=O)N[C@H](C(=O)N1CCC[C@H]1c1cc2ccnc(-c3ccccc3)c2[nH]1)C1CCOCC1 [compound 1] |
| 79.2 | 445 | 131 | 29.8 | – | – | – | – | CN[C@@H](C)C(=O)N[C@H](C(=O)N1CCC[C@H]1c1cc2ncnc(-c3ccccc3)c2[nH]1)C1CCCCC1 [compound 3] |
| 63.8 | – | 91 | 20.7 | – | – | – | – | CN[C@@H](C)C(=O)N[C@H](C(=O)N1CCC[C@H]1c1cc2ccnc(-c3ccccc3)c2[nH]1)C1CCCCC1 [compound 13] |
| 91.5 | 514 | 139 | 31.7 | – | – | – | – | CN[C@@H](C)C(=O)N[C@H](C(=O)N1CCC[C@H]1c1cc2nc(C)nc(-c3ccccc3)c2[nH]1)C1CCCCC1 [compound 5] |
| 85.6 | 481 | 113 | 25.7 | – | – | – | – | CN[C@@H](C)C(=O)N[C@H](C(=O)N1CCC[C@H]1c1cc2ccnc(-c3ccc(F)cc3)c2[nH]1)C1CCOCC1 [compound 7] |
